The results in this text go back to US8361969B2, “Designer cyclic peptides—HIV gp120 antagonists and their applications” (priority 2011, dated 2013).

“And” between values parts separate entries of the source, which are not always exact repeats. Equal entries are not always repeated. Non-standard residues stand in square brackets, D forms with d. Residues, ends and D or L forms follow the SMILES beside them. dBip = N[C@H](Cc1ccc(-c2ccccc2)cc1)C(=O)O

The IC50 is the concentration at which inhibition is half-maximal.

The test system of one data set is cells. Particulars: highest tested concentration 100 μM.
A further data set has as its system HIV-1. The conditions noted are these: read-out: IC50, inhibition of HIV-1 entry (attachment assay); compounds pre-equilibrated with the cells rather than with the virus; value represents lower boundary of actual activity. From the text:
An attachment assay, described by Lackman-Smith et al., 2008, was used.

On to `CC[C@H](C)[C@@H]1NC(=O)[C@H](CC(=O)O)NC(=O)[C@H](Cc2ccccc2)NC(=O)[C@H](CC(=O)O)NC(=O)[C@@H](CC(=O)O)NC(=O)[C@@H](Cc2ccc(-c3ccccc3)cc2)NC(=O)[C@H]2CCCN2C(=O)CNC(=O)[C@@H](CCC(=O)O)NC(=O)[C@@H](Cc2ccc(O)cc2)NC(=O)[C@H](CCCCN)NC(=O)[C@@H](CC(C)C)NC(=O)[C@@H](CC(=O)O)NC(=O)[C@H]([C@@H](C)CC)NC1=O` [2-s4-98rp-39m-60-1_MC] (cyclo(DFDII[dD][dL]K[dY][dE]G[dP][dBip][dD])), for which the “cytotoxicity (none observed up to the highest tested concentration)” value with cells was above 100 µM. Also, the IC50 with HIV-1 was ≤ 1.64 µM and 1.64 µM.
